In US9440957B2, “Compounds and compositions for modulating EGFR Activity” (Novartis AG, priority 2012, dated 2016):
Like-named read-outs stand apart in the source and are kept apart here.

How the values were obtained:
HCC827 (Del E746-A750) = HCC827 (Del E746-A750) (Homo sapiens, UniProt P00533, DEL746-750); assay: EGFR target modulation in HCC827 cell line (phospho-EGFR Y1173 ELISA); type: cell-based
Protocol: EGFR Target Modulation in H1975, H3255 and HCC827 Cell Lines Tissue Culture. Cells were maintained in 10% FBS/RPMI supplemented with 100 μg/ml Penicillin/Streptomycin (Hyclone #SH30236.01). […] The cells were allowed to incubate overnight in a 37° C., 5% CO2 humidified tissue culture incubator. […] The serial diluted compounds were transferred to the plate containing cells by using a 50 nl Pin Head device (Perkin Elmer) and the cells were placed back in the incubator for 3 hours. Phospho-EGFR ([…]) Target Modulation Assay. The media was reduced to 20 ul using a Bio-Tek ELx 405 SelectTM plate washer. […] The plates were shaken at 4° C. for 20 minutes. An aliquot of 25 ul from each well was transferred to pEGFR(Y1173) ELISA plates for analysis. Phospho-EGFR ([…]) ELISA. Solid white high-binding ELISA plates (Greiner #781074) were coated with 5 ug/ml anti-EGFR capture antibody (R&D Systems #AF231) overnight in 50 mM carbonate/bicarbonate pH 9.5 buffer. Plates were blocked with 1% BSA (Sigma #A7030) in PBS for 1 hour at room temperature. Wash steps were carried out with a Bio-Tek ELx405 SelectTM using 4 cycles of 100 ul TBS-T (20 mM Tris, 137 mM NaCl, 0.05% Tween-20) per well. […] Lysis was allowed to occur for 20 minutes on ice. A 25 ul aliquot was added to each well of the blocked ELISA plate and incubated overnight at 4° C. with gentle shaking. […] After washing, 1:2,000 anti-rabbit-HRP (Cell Signaling #7074) in 0.2% BSA/TBS-T was added and incubated for 1 hour at room temperature. Chemiluminescent detection was carried out with SuperSignal ELISA Pico substrate (ThermoScientific #37069). Signal was read on EnVision plate reader using built-in UltraLUM setting. Data Analysis. Control cells treated with EGF were set to 100% maximum response. […] With these parameters, the IC50's for each compound in each cell line was calculated using non-linear curve fitting analysis.

[1] = target: human EGFR WT (NIH/3T3 cells, EGF-induced) (Homo sapiens, UniProt P00533); assay: EGFR target modulation in engineered NIH/3T3 cell lines (phospho-EGFR Y1068 AlphaLISA), EGFR WT; type: cell-based; conditions: engineered NIH/3T3 cells, read-out: NIH3T3 IC50 (μM) EGFR (WT)
In short: (§1)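 Engineered NIH/3T3 cells expressing EGFR variants treated 3 h at 37 °C with 12-point 1:3 compound series (top stock 10 μM); only WT cells stimulated with 50 ng/ml EGF for 5 min before lysis. Phospho-Y1068 measured by AlphaLISA with total-EGFR antibody; IC50 from non-linear fitting.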

[2] = target: human EGFR L858R/T790M (NIH/3T3 cells) (Homo sapiens, UniProt P00533, L858R/T790M); assay: EGFR target modulation in engineered NIH/3T3 cell lines (phospho-EGFR Y1068 AlphaLISA), EGFR L858R/T790M; type: cell-based; conditions: engineered NIH/3T3 cells, read-out: NIH3T3 IC50 (μM) EGFR (L858R/T790M)
In short: as §1

H3255 (EGFR L858R) = H3255 (EGFR L858R) (Homo sapiens, UniProt P00533, L858R); assay: EGFR target modulation in H3255 cell line (phospho-EGFR Y1173 ELISA); type: cell-based
In short: (§2)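 Readout: luminescent pY1173-EGFR sandwich ELISA on cell lysates. Treatment: compound, 3 h, 37 °C.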

HEKn (EGFR WT) = HEKn (EGFR WT) (Homo sapiens, UniProt P00533); assay: EGFR target modulation in HEKn (EGFR-WT) cell line (phospho-EGFR Y1173 ELISA); type: cell-based; conditions: value outside parentheses
In short: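 Primary neonatal human keratinocytes (EGFR WT) were exposed to serially diluted compounds for 3 h, then lysed on ice. Phospho-EGFR Y1173 was measured by chemiluminescent sandwich ELISA using anti-EGFR capture.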

EGFR(L858R/T790M) = target: T1, EGFR(L858R/T790M) (Homo sapiens, UniProt P00533, L858R/T790M); assay: EGFR biochemical assay (HTRF), IC50 determinations
T1 construct: purchased from Carna (GST-a.a. 669-1210)
In short: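 HTRF kinase reaction with biotin-TK peptide at room temperature, quenched with EDTA at 60 min and detected with PT66K/SAXL after 1 h. Without preincubation, enzyme starts the reaction with compound, ATP and peptide present. With preincubation, compound, enzyme and peptide sit at room temperature for a set time before ATP is added.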

[3] = target: human EGFR L858R (NIH/3T3 cells) (Homo sapiens, UniProt P00533, L858R); assay: EGFR target modulation in engineered NIH/3T3 cell lines (phospho-EGFR Y1068 AlphaLISA), EGFR L858R; type: cell-based; conditions: engineered NIH/3T3 cells, read-out: NIH3T3 IC50 (μM) EGFR (L858R)
In short: as §1

H1975 (EGFR L858/T790M) = H1975 (EGFR L858/T790M) (Homo sapiens, UniProt P00533, L858R/T790M); assay: EGFR target modulation in H1975 cell line (phospho-EGFR Y1173 ELISA); type: cell-based
In short: as §2

[4] = EGFR (L858R/T790M) with 90 min pre-incubation, read-out: IC50 (μM) Column B
[5] = EGFR (L858R/T790M) with no pre-incubation, read-out: IC50 (μM) Column A

Sequence of human EGFR L858R (NIH/3T3 cells) (P00533 25-1210 L858R): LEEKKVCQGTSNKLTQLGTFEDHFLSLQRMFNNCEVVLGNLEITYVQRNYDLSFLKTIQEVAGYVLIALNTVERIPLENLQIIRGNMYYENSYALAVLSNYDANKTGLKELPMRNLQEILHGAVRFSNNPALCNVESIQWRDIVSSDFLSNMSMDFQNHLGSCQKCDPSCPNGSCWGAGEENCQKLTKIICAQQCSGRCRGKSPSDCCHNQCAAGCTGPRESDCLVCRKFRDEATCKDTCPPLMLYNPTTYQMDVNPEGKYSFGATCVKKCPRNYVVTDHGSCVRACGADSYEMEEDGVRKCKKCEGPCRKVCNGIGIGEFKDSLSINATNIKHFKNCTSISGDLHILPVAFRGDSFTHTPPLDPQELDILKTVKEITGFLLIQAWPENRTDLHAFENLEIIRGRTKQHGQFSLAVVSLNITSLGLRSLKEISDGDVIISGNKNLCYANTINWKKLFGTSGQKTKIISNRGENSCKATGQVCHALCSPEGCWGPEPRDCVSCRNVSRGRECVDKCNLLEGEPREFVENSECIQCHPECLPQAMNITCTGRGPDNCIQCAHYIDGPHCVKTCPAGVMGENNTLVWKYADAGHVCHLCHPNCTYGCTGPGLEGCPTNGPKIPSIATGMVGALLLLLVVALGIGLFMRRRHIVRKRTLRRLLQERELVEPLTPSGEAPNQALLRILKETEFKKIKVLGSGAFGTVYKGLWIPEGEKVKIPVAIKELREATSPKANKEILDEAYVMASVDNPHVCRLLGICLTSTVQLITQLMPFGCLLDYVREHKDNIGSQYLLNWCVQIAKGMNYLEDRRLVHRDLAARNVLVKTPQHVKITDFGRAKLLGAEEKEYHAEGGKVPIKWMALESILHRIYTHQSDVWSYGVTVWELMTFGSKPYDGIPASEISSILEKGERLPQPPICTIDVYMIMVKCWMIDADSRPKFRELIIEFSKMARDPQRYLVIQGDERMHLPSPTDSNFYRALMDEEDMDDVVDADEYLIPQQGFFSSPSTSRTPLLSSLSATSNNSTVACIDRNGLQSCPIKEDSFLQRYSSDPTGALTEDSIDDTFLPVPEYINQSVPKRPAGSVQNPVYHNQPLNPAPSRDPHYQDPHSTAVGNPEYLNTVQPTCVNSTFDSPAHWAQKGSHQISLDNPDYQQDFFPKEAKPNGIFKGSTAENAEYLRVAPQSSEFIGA
Sequence of H3255 (EGFR L858R) (P00533 25-1210 L858R): as above
Sequence of HEKn (EGFR WT) (P00533 25-1210): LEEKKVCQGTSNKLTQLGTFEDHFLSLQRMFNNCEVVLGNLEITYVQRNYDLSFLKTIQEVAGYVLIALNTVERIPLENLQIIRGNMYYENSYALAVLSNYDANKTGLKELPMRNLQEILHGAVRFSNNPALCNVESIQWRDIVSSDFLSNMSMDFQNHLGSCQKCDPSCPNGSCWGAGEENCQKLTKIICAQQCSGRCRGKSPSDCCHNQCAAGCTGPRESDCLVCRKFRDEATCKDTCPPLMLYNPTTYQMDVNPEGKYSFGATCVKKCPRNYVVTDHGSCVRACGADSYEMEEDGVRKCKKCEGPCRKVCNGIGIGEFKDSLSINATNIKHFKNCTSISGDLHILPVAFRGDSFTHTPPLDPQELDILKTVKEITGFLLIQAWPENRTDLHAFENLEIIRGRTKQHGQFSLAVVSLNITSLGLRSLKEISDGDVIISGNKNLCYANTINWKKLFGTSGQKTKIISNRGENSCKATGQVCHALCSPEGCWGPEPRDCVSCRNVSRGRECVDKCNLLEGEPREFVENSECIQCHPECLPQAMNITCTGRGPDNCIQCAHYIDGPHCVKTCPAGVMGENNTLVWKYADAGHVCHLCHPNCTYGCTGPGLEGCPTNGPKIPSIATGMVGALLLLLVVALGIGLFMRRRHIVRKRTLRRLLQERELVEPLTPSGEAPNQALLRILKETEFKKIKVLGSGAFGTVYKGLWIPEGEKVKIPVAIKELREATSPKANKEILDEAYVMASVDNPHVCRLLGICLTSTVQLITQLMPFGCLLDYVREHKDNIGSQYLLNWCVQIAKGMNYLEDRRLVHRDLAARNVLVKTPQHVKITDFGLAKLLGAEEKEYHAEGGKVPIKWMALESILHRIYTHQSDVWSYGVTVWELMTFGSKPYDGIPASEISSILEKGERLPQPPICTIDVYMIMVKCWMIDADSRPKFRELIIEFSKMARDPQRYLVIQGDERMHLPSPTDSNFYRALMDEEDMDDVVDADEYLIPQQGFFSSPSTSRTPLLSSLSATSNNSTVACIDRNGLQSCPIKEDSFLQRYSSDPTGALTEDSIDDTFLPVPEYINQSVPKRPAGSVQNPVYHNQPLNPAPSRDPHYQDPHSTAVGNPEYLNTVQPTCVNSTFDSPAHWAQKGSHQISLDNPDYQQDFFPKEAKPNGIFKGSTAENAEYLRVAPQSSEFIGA
Sequence of human EGFR WT (NIH/3T3 cells, EGF-induced) (P00533 25-1210): as above

IC50 (HCC827 (Del E746-A750)) | IC50 [1] | IC50 [2] | IC50 (H3255 (EGFR L858R)) | IC50 (HEKn (EGFR WT)) | IC50 (EGFR(L858R/T790M); [4]) | IC50 (EGFR(L858R/T790M); [5]) | IC50 [3] | IC50 (H1975 (EGFR L858/T790M)) | Compound
< 1 nM | 0.019 µM | < 0.001 µM | 2 nM | 98 nM | < 0.001 µM | < 0.001 µM | < 0.001 µM | 1 nM | Cc1cccc2nc(NC(=O)c3ccnc(OC(F)F)c3)n([C@@H]3CCCCN(C(=O)/C=C/CN(C)C)C3)c12 [Example 17-103]
90 nM | > 10 µM | 0.02 µM | 390 nM | > 10000 nM | < 0.001 µM | 0.062 µM | 0.176 µM | 16 nM | C=CC(=O)N1CCC[C@@H](n2c(NC(=O)c3cccc(C(F)(F)F)c3)nc3cc(COC)ccc32)C1 [Example 17-122]
14 nM | > 10 µM | 0.011 µM | 33 nM | 730 nM | < 0.001 µM | 0.012 µM | 0.081 µM | 5 nM | C=CC(=O)N1CCCCC(n2c(NC(=O)c3cccc(C(F)(F)F)c3)nc3cc(C)ccc32)C1 (stereo not shown) [Example 17-1]
4 nM | – | – | 20 nM | 870 nM | < 0.001 µM | 0.018 µM | – | 14 nM | COc1cccc2nc(NC(=O)c3ccnc(C)c3)n([C@@H]3CCCCN(C(=O)/C=C/CN(C)C)C3)c12 [Example 17-176]
207 nM | > 10 µM | 0.012 µM | 243 nM | > 10000 nM | – | – | 0.149 µM | 27 nM | C=CC(=O)N1CCC[C@@H](n2c(NC(=O)c3cccc(C(F)(F)F)c3)nc3cc(C)ccc32)C1 [Example 17-105]
38 nM | – | – | 106 nM | 4200 nM | 0.006 µM | 0.097 µM | – | 117 nM | COc1cc2nc(NC(=O)c3ccnc(C)c3)n([C@@H]3CCCCN(C(=O)/C=C/CN(C)C)C3)c2cc1Cl [Example 17-178]

More lines, now with the values behind:

Compound | IC50 (HCC827 (Del E746-A750)) | IC50 [1] | IC50 [2] | IC50 (H3255 (EGFR L858R)) | IC50 (HEKn (EGFR WT)) | IC50 (EGFR(L858R/T790M); [4]) | IC50 (EGFR(L858R/T790M); [5]) | IC50 [3] | IC50 (H1975 (EGFR L858/T790M))
C=CC(=O)N1CCCC[C@@H](n2c(NC(=O)c3ccnc(C)c3)nc3cc(CN4CCCCC4)cc(C)c32)C1 [Example 17-144] | < 1 nM | 0.029 µM | < 0.001 µM | 1 nM | 72 nM | < 0.001 µM | 0.002 µM | < 0.001 µM | < 1 nM
Cc1cc(C(=O)Nc2nc3cccc(Cl)c3n2[C@@H]2CCCCN(C(=O)/C=C/CN(C)C)C2)cc(C)n1 [Example 6, (R,E)-N-(7-chloro-1-(1-(4-(dimethylamino)but-2-enoyl)azepan-3-yl)-1H-benzo[d]imidazol-2-yl)-2,6-dimethylisonicotinamide] | 7 nM | 0.34 µM | 0.002 µM | 34 nM | 1520 nM | < 0.001 µM | 0.01 µM | 0.004 µM | 16 nM
C=CC(=O)N1CCCC[C@@H](n2c(NC(=O)c3cc(C)nc(C)c3)nc3cc(CN4CCCC4)cc(C)c32)C1 [Example 17-113] | < 1 nM | 0.081 µM | 0.001 µM | 4 nM | 265 nM | < 0.001 µM | 0.003 µM | 0.001 µM | 2 nM
C/C=C/C(=O)N1CCCC[C@@H](n2c(NC(=O)c3cc(C)nc(C)c3)nc3cc(CN4CC[C@H](OC)C4)cc(C)c32)C1 [Example 17-162] | 23 nM | – | – | 145 nM | 4600 nM | 0.004 µM | 0.054 µM | – | 38 nM
C/C=C/C(=O)N1CCCC[C@@H](n2c(NC(=O)c3ccnc(C)c3)nc3cc(CN4CC[C@@H](OC)C4)cc(C)c32)C1 [Example 17-163] | 11 nM | – | – | 51 nM | 1260 nM | 0.005 µM | 0.07 µM | – | 43 nM
O=C(Nc1nc2cccc(Cl)c2n1[C@@H]1CCCCN(C(=O)/C=C/CN2CCCC2)C1)c1ccnnc1 [Example 3-8] | 4 nM | – | – | 10 nM | 194 nM | < 0.001 µM | 0.009 µM | – | 9 nM
Cc1cc(C(=O)Nc2nc3cccc(C)c3n2[C@@H]2CCCCN(C(=O)/C=C/CN3CCCC3)C2)ccn1 [Example 3-9] | 5 nM | – | – | 12 nM | 590 nM | < 0.001 µM | 0.008 µM | – | 7 nM
C/C=C/C(=O)N1CCCC[C@@H](n2c(NC(=O)c3cc(C)nc(C)c3)nc3cc(CN4CC[C@H](F)C4)cc(C)c32)C1 [Example 17-165] | 31 nM | – | – | 50 nM | 4500 nM | 0.004 µM | 0.054 µM | – | 39 nM
C=CC(=O)N1CCCC[C@@H](n2c(NC(=O)c3cc(C)nc(C)c3)nc3cc(CN4CC[C@@H](OC)C4)cc(C)c32)C1 [Example 17-157] | 2 nM | – | – | 7 nM | 308 nM | < 0.001 µM | 0.003 µM | – | 2 nM
